This is an account of results in patent US7258861B2, “TNF-derived peptides for use in treating oedema” (Innogenetics N.V., priority 2001, dated 2007).

The test system of data set [1] is ex vivo instilled rat lung. The data set can be described thus: Ex vivo rat flooded lung, model of hydrostatic edema. Particulars: for clearing alveolar fluid content ex vivo: after intratracheal instillation; for clearing alveolar fluid content ex vivo / activity in fluid clearance: summary in words. How it is done:
In this model edema is induced by instillating 2 ml of 0.9% NaCl solution intratracheally. Alternatively, edema formation can be modulated by varying the height of the venous outflow and the perfusion buffer containing reservoir, or alternatively by varying the time the lung is exposed to the elevated pressure. […] The clearance of alveolar fluid from the lung is calculated by means of measuring the concentration of HSA, which is added to the instillate over time. Alternatively, the over time weight loss as a measure of edema resorption (high weight loss is high liquid clearance), of the artificially instilled lung can be measured. The lung tidal volume, compliance and weight are monitored continuously during the experiment. At the end of the experiment bronchoalveolar fluid and supernatant of lung homogenate is taken for measurement of inflammatory mediators.
The lungs of female Wistar rats (weight 200–250 g; Harlan-Winkelmann, Borchen, Germany) are prepared after terminal i.p. anesthesia by 160 mg/kg pentobarbitural —Na (Merial Ltd, Halbermoos, Germany) and perfused as described by Uhlig and Wolin (1994), and by Uhlig and von Bethmann (1997). All equipment is obtained from Hugo Sachs Electronics (March-Hugstetten, Germany). […] As perfusion medium, a Krebs-Henseleit buffer (38° C.) containing 2% bovine serum albumin (Fraction V, Scrva. Heidelberg, Germany), 0.1% glucose (Riedel-de-Haën Inc., Seelze, Germany), and 0.3% HEPES (ICN Biomedicals Inc., Ohio, USA) is used. The total amount of recirculating buffer is 100 ml. The lungs are suspended by the trachea and ventilated by negative pressure ventilation (inspiratory pressure: −7 cm H2O, expiratory pressure: −2 cm H2O) with 80 breaths per minute resulting in a tidal volume of approximately 2 ml. Every 5 minutes, a deep inspiratory breath (−20 cm H2O) is performed. Artificial thorax chamber pressure is measured with a differential pressure transducer (Validyne DP 45-14), and an air flow velocity with a pneumotachograh tube (Fleisch Type 0000) connected to a differential pressure transducer (Validyne DP 45-15). The perfusate flow (Narcomatic RT-500) and the arterial and venous pressure (Statham P23BB) are continuously monitored. The pH of the perfusate before entering the lung is kept at 7.25 to 7.35 by automatic bubbling of the buffer with CO2 as soon as the pH exceeds this range. A weight transducer is integrated into the chamber lid which allows the continuous assessment of lung weight. Data are recorded on a Pentium II computer using the Mathlab Sofware package (Mathworks, Inc., Nattick Mass., USA). For lung mechanics, the data are analyzed by applying the following formula: P=1/C*VT+RLdV/dT
Where P is chamber pressure, C pulmonary compliance, VT tidal volume, and RL airway resistance. All lung physiology parameters were normalized to time point 0, i.e. after the end of the preconditioning perfusion of 40 minutes.

The subject of the next data set is isolated rat lungs. The data set can be described thus: Isolated blood perfused flooded rat lung (weight, lung mechanics, PV curves, histology). The conditions noted are these: pretreated lungs after flooding and 2 hours reperfusion.
Data set [2] deals with left lung of Fischer (F344) rats. The data set is described as follows: Rat model of lung reperfusion injury (warm ischemia and reperfusion). It counts as in vivo. How it is done: In a modification of the model of Ohno et al. (1993) male Fischer (F344) rats (200–250 g) undergo clamping of the left pulmonary artery, pulmonary vein and main bronchus for 36 minutes of warm ischemia. After reperfusion of the left lung, the right lung is occluded to assess the function of the left lung for 90 minutes. The peptide is given at 3 minutes after reperfusion by either instillation or intravenous injection via the subclavian vein.
• 1. Anaesthesia of the rat in a glass chamber, 4% Halothane and Oxygen 4/min. • 2. Intubation of the rat with a 1.8 mm catheter, • 3. Shaving the fur on the abdomen and left side of the animal. • 4. Ventilation via the tracheal tube 100/min, 2.5 ml 20% oxygen, Harvard Rodent Ventilator (Harvard Apparatus, South Natick, Mass.), PEEP 5 mm H2O. • 5. A left thoracotomy is carried out in the in 4th intercostal space. • 6. Dissection of the left lung hilar region. • 7. Microvascular clips are placed around the left pulmonary artery (PA), Pulmonary vein (PV) and left main bronchus (B) to induce warm ischemia of the left lung. Small circulation is still ongoing through the right lung. This is the start of the Warm Ischemia Time (WIT). • 8. Anaesthaesia is maintained with 2% Halothane, 40% Oxygen. • 9. A provisory Z suture is made to temporary close the thoracotomy and a gaze sponge is put on the animal to decrease warmth loss. • 10. Near the end of the WIT, a thoracophrenolaparatomy in the midline with thorough electrocaterisation. (two peans on the sternum). • 11. Putting 2-0 Softsilk on the trachea around the intubation tube. • 12. Dissection of the right hilar elements. • 13. Taking away microvascular clips from the left hilar elements. End of WIT of the left lung after 36 minutes. • 14. Putting microvascular clips on right PA and B. Small circulation only through left lung. Start developing of left oedema time (LLOT). • 15. After 3 minutes of LLOT: instillation of the drug in 0.5 ml of 0.9% saline solution (Baxter) or injection of the drug in 0.25–0.3 ml of 0.9% saline through the subclavian vein. • 16. After 6, 30, 60 and 90 minutes of LLOT, puncture of the Aortic Arch (AA) with needle for blood gas analysis in Radiometer ABL 700 Serie, (Denmark). • 17. After each puncture the AA puncture hole is pressed with a cotton swab. • 18. Blood gas analysis is taken every time from AA (the heart rate should be over 60). • 19. After the last blood gas analysis (90 minutes), both lungs are flushed via the PA with 20 ml of 0.9% saline at a pressure of 20 cm H2O. […] The heart-lung block is excised for storage under formaline or in the freezer awaiting immunohistopathological analysis. Alternatively, the lung can be excised without flushing to assess wet to dry ratio's. Results (FIG. 7)

Data set [3] concerns lung microvascular endothelial cells. The data set can be described thus: Whole-cell patch clamp, membrane conductance in lung microvascular endothelial cells. It counts as cell-based, mouse. Particulars: 30 min preincubation at acidic pH (pH 6); TNF, mutTNF 100 ng/ml, peptides 100 μg/ml. An excerpt:
Animals, cells and reagents. Male CBA/J or C57BL/6 mice, as well as male TNFR ½^0/0 C57BL/6 mice deficient in TNF receptors (Bruce et al., 1996) provided by H. Bluethmann, F. Hoffmann-La Roche, Basel, Switzerland, were used at the age of 8–10 weeks. Their care was in accordance with institutional guidelines. Lung microvascular endothelial cells were isolated from CBA/J mice and characterized as described (Jackson et al., 1990) using magnetic beads (Dynabeads M-450, Dynal, Oslo, Norway), covalently bound to a purified rat-anti-mouse PECAM-1 monoclonal antibody (donated by B. Imhof, University of Geneva). Microvascular lung endothelial cells were resuspended in DMEM containing 2 mM L-glutamine, 100 U/ml penicillin, […], 20% FCS, 40 U/ml heparin and […] endothelial cell growth supplement (Brunschwig Chemie, Basel, Switzerland). For patch clamp experiments, cells were plated onto 35×10 mm easy grip Petri dishes (Beckton Dickinson, Plymouth, UK), pre-coated with 0.2% gelatin (Sigma, Buchs, Switzerland). Resident peritoneal macrophages, isolated in ice cold RPMI containing antibiotics and 10 U/ml Heparin, were left to adhere onto 35×10 mm easy grip Petri dishes for 4 h, after which the non-adherent cells were removed. Cells were grown in RPMI 1640 containing 2 mM L-glutamine, 100 U/ml penicillin, 10 μpg/ml streptomycin and 10% fetal bovine serum (all from Gibco). For patch clamp, the macrophages ware used 24 h after isolation.
Electrophysiology. Cells were pretreated for 30 min with TNF, mutTNF and tip peptides at 37° C. in a buffer consisting of 145 mM NaCl, 3 mM KCl, 2mM CaCl2, 2mM MgCl2, 10 mM D-glucose, and 10mM Hepes, and pH-adjusted with NaOH to required value. Cells were then washed with the same buffer pH-adjusted at 7.3, and experiments were performed using the tight-seal, whole-cell recording technique. Currents were recorded with an Axopatch-200A amplifier (Axon Instrument Inc, Foster City, Calif., USA), low pass-filtered at 1 kHz. Digitalization and off-line analysis was performed using the WCP program (J. Dempster, Strathclyde Electrophysiology Software, Glasgow, UK). Patch pipettes were pulled from borosilicate glass and fire polished to have an open resistance of 3–5 MW with an internal solution containing […], 2 mM MgCl2, 10mM EGTA, 20 mM TEA-Cl, 10 mM D-glucose 10 mM Hepes, pH-adjusted to 7.3 with CsOH. Series resistances were kept under 10 MW. Capacitance and series resistance compensation were applied and set to 70%. All experiments were done at room temperature. Results are given as mean ±SEM, unless otherwise indicated. Analysis of variance was performed on currents and membrane conductance values, with post-hoc Dunn-Bonferroni test for significance of differences observed between two groups. A P value of 0.05 was considered significant.
A general note: In patch-clamp work, channel activity is measured electrically.

[4] abbreviates: measured 80 minutes after instillation.

Where “and” joins values, the source holds several entries; their conditions need not be identical. Equal values may be shown once. Positions of bridges follow the written chain, without caps; N, C: chain ends. Residues, ends and D or L forms follow the SMILES beside them. No end group written: not given here. *: point of attachment. Biotin = O=C1N[C@H]2[C@H](CS[C@H]2CCCCC(=O)*)N1

Method for isolated rat lungs: Rats. For the ex vivo experiments, 31 Sprague-Dawley rats (300 to 350 g) were tracheotomized and mechanically ventilated (40% oxygen in air) under isoflurane anesthesia. The experimental protocol was reviewed and approved by the Ethics Committee for Animal Research and by the Veterinary Office of our institution. The femoral vessels were cannulated for blood sampling, fluid replacement, and continuous arterial blood pressure monitoring. Following anticoagulation (1.5 IU/g i.v. heparin), 20 ml of blood were withdrawn and replaced by an equal volume of dextran-40 (Macrodex 10% in normosaline) to serve as priming volume for the isolated perfusion circuit. The heart-lung block was prepared as described by Ma et al., 2000, weighed and assigned to one of four groups. […] The lungs were suspended, mechanically ventilated, and perfused at constant pressure with autologous blood as described by Ma et al., 2000.
An inspiratory and expiratory quasi-static pressure-volume (PV) curve was performed at the end of the 2-hour reperfusion period by inflating and then deflating the lungs at a constant rate (0.3 ml/sec) using an automated infusion pump. A sigh was applied in all groups every 15 minutes to minimize atelectasis formation. The blood pH was maintained between 7.3 and 7.5 and, if necessary, corrected with sodium bicarbonate 8.4% or a change of the inspired CO2 as required by the blood gas analysis. Every 30 minutes, a blood sample was collected for blood gas analysis as well as for hematocrit and electrolyte concentration.
Inclusion criteria. Immediately following the start of reperfusion, the preparation had to fulfill three technical inclusion criteria: • 1) left atrial pressure (LAP) 5-10 mmHg; • 2) peak airway pressure (AWP) <15 cmH2O; and • 3) pulmonary blood flow (PBF) >10 ml/min. […] The included lungs were then flooded with gentle intratracheal instillation of 2 ml normal saline and the recorded variables measured for 2 subsequent hours.
Histological analysis. Random lung samples were fixed for light and electron microscopy and analyzed by pathologists blinded to the lung's protocol group assignment.

As for `CC(C)(C)NCC(O)c1cc(O)cc(O)c1` (centres unmarked) [Terbutaline, reference compound], in data set [1] (Terbutalin 1 mM alone, individual lungs), the “Weight loss of ex vivo instilled rat lung over 80 min” value (“Weight loss … over 80 min” below) was 1035 mg and 872 mg and 1219 mg and 1119 mg and 822 mg and 1075 mg and 675 mg and 730 mg and 1000 mg and 923 mg and 880 mg and 702 mg. The “Weight loss of ex vivo instilled rat lung over 100 min” value in data set [1] (Terbutaline 1 mM + Chitobiose 500 μg) was 800 mg; in data set [1] (Terbutaline 1 mM alone, individual lungs), 805 mg and 1223 mg and 1425 mg and 1370 mg. In data set [1], the “clearing alveolar fluid content ex vivo” value is on record as “capable of clearing alveolar fluid content”.
Regarding `CC(C)C[C@@H]1NC(=O)[C@H](CCC(=O)O)NC(=O)[C@H](Cc2c[nH]c3ccccc23)NC(=O)[C@@H]2CCCN2C(=O)[C@H](CCCCN)NC(=O)[C@H]([C@@H](C)O)NC(=O)CNC(=O)[C@@H](N)CSSC[C@@H](C(=O)O)NC(=O)[C@H](Cc2ccc(O)cc2)NC(=O)[C@H](C)NC(=O)[C@@H]2CCCN2C(=O)[C@H](CCCCN)NC(=O)[C@H](CCC(=O)O)NC(=O)[C@H](CC(=O)O)NC(=O)[C@@H]2CCCN2C(=O)CNC1=O` [cyclic mu scrambl Tip, reference compound] (H-CGTKPWELGPDEKPAYC-OH; disulfide 1-17), the “endothelial flaps and epithelial blebs (electron microscopy)” value in the data set with isolated rat lungs is listed as “less evident”.
Consider “CGQREAPAGAAAKPWYC (disulfide 1-17) [hum mut Tip, reference compound]”, for which, in data set [1], the “clearing alveolar fluid content ex vivo” value is “inactive”. Moreover, the “pO2 blood gas levels” value in data set [2] (6 to 90 minutes of LLOT, cyclic hum Ltip 500 μg/kg to 5 μg/kg, hum mut Tip 500 μg/kg) is on record as “followed completely the values seen in the control animals”. Besides, the “gain in pO2 blood gas” value in data set [2] (iv application) was “no effect”.
Turning to “CGQRETPEGAEAKPWY (Biotin-CGQRETPEGAEAKPWY) [linear hum Ltip]”, the “activity in fluid clearance” value in data set [1] (setting [4]) is listed as “equally active”; in data set [1] (measuring for 100 minutes after instillation) it was “less active”. The “Weight loss … over 80 min” value in data set [1] (synthetic peptide 1000 μg/lung) is 498 mg and 863 mg and 585 mg and 462 mg.
Regarding “CTPEGAEC (Biotin-CTPEGAEC; cysteine pairing not given here; listed as Mus musculus) [STip]”, the “activity in fluid clearance” value in data set [1] (setting [4]) is on record as “equally active”. Further, in data set [1] (synthetic peptide 1000 μg/lung), the “Weight loss … over 80 min” value is 507 mg and 607 mg and 781 mg and 703 mg and 744 mg; the “Weight loss of ex vivo instilled rat lung over 100 min” value is 836 mg and 535 mg and 684 mg and 891 mg and 849 mg. The “whole cell current / membrane conductance” value in data set [3] was “failed to induce a voltage-dependent current”.
As for “GG-CCIPKDAPAGAALKPWYC [mutTip, reference compound]”, the “whole cell current / membrane conductance” value in data set [3] is “inactive”.
For the compound “GG-COTKPWELOPDEKPAYC [scramblTip, reference compound]”, the “whole cell current / membrane conductance” value in data set [3] was “inactive”.
